# Data taken from patent publication US20160081968A1, “COMPOSITION FOR USE IN REDUCING SCAB FORMATION AND PROMOTING HEALING” (BIOGLAN AB, priority 2013, published 2016).
# Tested on: bacteria (e.g. S. aureus, B. subtilis, Pseud. aeuruginosa)
# Assay: Antimicrobial activity of glyceryl monolaurate
# Assay type: cell-based
# From the text: The compositions have an inbuilt antimicrobial system which gives less need for preservatives. The antimicrobial activity of the composition is partly due to the presence of hydrogen peroxide and partly due to the presence of glyceryl monolaurate. […] In combination with hydrogen peroxide, a synergistic effect is achieved and antimicrobial activity according to A criteria is obtained against also yeast (e.g. Candida albicans) and molds (Aspergillus niger). This was shown by performing a preservative effectiveness test according to the PhEur method. Acceptance criteria A is the most strict criteria according to PhEur. Criteria B is less strict.
smiles,measurement,value
CCCCCCCCCCCC(=O)OCC(O)CO (stereo not shown) [Glyceryl monolaurate],antimicrobial activity against bacteria,antimicrobially active against bacteria
